# Laboratory results reported in US6117841A, “Substituted peptidylamine calcium channel blockers” (Warner-Lambert Company, priority 1999, dated 2000).
# Like-named read-outs stand apart in the source and are kept apart here.
# Molecular target: T1, N-type Ca^2+ Channel (Homo sapiens, UniProt Q00975)
# T1 construct: host or cells: IMR-32 cells differentiated with dibutyryl cAMP and bromodeoxyuridine
# Assay: Measurement of N-type Ca2+ channel blocking potencies in IMR-32 cells using the fluorescent Ca2+ indicator Indo-1
# Assay type: cell-based
# Procedure, shortened: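 IMR-32 cells were differentiated 7–13 days (1 mM dibutyryl cAMP, 2.5 µM BrdU) and Indo-1-loaded. They were preincubated 10 min at 30 °C with compound and 5 µM nitrendipine in HEPES/Tris pH 7.4 HBSS with 0.5% BSA, then KCl/CaCl2-depolarized. The peak-minus-basal 400/490 nm emission ratio gave IC50 by four-parameter logistic fit.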
# [1] = IMR-32 cells, 5 μM nitrendipine
# [2] = IMR-32 cells, K+ depolarization, 5 μM nitrendipine to block L-type channels, read-out: IMR 32 IC50
# [3] = IMR-32 cells, 5 μM nitrendipine, Examples 116-140, read-out: IMR 32% of Blockade @
# T1 sequence (Q00975 whole entry): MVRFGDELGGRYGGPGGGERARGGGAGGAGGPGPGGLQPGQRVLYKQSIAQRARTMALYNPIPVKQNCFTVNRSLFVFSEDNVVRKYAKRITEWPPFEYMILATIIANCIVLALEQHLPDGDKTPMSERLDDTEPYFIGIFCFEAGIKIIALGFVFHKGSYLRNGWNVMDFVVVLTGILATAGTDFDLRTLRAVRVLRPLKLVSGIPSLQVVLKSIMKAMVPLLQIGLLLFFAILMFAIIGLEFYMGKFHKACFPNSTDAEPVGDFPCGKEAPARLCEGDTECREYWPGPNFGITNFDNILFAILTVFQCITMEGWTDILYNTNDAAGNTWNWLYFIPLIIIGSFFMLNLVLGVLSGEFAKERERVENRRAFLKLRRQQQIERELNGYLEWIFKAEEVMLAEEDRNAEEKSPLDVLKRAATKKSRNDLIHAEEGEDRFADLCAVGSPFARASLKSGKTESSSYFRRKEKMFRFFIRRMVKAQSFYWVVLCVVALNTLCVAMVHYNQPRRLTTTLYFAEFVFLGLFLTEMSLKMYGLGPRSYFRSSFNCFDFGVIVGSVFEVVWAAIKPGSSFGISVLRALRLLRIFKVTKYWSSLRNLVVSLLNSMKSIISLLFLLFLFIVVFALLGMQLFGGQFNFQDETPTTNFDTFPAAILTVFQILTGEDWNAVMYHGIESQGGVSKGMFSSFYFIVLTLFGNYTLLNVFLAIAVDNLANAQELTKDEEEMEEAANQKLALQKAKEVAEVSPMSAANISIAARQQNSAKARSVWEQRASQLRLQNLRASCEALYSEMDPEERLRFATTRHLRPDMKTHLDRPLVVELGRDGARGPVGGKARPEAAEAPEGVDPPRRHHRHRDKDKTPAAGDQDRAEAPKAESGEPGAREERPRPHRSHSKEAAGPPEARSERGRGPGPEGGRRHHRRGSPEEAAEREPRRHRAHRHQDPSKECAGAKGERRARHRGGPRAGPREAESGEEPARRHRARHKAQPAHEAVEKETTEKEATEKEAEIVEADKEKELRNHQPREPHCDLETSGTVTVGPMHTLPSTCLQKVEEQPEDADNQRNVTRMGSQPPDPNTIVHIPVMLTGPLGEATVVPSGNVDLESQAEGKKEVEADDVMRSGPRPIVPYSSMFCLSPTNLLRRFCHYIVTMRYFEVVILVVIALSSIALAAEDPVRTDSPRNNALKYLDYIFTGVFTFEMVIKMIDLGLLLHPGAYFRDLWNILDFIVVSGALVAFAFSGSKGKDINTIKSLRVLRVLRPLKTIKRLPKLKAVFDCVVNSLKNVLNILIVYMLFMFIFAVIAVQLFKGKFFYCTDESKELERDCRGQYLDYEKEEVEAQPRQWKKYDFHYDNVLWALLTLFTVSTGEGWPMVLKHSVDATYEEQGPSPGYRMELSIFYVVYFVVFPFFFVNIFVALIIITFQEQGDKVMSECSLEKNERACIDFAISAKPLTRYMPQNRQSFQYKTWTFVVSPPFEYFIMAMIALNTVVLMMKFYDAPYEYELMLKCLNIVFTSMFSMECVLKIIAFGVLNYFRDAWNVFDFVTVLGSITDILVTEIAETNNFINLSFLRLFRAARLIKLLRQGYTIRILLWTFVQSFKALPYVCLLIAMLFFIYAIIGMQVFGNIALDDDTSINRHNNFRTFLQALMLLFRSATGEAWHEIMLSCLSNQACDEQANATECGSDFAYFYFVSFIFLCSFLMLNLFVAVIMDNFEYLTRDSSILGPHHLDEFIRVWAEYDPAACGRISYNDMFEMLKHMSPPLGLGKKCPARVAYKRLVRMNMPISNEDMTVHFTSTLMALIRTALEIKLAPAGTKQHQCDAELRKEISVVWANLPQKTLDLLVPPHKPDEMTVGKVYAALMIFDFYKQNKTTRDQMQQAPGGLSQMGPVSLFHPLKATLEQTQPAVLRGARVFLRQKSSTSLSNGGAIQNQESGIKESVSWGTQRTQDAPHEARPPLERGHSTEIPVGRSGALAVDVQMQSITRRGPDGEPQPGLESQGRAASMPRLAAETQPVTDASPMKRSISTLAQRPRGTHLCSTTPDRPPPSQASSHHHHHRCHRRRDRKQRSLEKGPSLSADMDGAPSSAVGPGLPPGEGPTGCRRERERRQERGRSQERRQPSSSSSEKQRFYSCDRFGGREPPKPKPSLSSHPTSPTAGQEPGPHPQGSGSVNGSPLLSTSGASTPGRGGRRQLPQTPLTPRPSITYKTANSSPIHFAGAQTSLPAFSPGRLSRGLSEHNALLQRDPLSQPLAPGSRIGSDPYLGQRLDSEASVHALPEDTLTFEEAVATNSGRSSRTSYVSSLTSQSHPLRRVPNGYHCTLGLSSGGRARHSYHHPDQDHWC
# T1 sequence (P54284 whole entry partner): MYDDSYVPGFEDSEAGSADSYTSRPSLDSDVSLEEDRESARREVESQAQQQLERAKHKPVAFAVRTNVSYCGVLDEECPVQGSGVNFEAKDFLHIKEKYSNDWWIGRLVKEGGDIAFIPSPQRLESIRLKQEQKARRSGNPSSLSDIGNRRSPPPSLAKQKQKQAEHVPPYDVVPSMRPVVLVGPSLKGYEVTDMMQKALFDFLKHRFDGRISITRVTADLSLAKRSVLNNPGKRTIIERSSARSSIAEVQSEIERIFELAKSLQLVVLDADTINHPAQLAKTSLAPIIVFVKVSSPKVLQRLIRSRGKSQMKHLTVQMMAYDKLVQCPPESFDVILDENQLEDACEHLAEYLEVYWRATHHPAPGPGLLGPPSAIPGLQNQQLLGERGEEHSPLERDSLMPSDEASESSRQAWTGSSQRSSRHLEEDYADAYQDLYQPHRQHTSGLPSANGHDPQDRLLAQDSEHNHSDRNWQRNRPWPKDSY
# T1 sequence (P54289 25-946 partner limits assumed): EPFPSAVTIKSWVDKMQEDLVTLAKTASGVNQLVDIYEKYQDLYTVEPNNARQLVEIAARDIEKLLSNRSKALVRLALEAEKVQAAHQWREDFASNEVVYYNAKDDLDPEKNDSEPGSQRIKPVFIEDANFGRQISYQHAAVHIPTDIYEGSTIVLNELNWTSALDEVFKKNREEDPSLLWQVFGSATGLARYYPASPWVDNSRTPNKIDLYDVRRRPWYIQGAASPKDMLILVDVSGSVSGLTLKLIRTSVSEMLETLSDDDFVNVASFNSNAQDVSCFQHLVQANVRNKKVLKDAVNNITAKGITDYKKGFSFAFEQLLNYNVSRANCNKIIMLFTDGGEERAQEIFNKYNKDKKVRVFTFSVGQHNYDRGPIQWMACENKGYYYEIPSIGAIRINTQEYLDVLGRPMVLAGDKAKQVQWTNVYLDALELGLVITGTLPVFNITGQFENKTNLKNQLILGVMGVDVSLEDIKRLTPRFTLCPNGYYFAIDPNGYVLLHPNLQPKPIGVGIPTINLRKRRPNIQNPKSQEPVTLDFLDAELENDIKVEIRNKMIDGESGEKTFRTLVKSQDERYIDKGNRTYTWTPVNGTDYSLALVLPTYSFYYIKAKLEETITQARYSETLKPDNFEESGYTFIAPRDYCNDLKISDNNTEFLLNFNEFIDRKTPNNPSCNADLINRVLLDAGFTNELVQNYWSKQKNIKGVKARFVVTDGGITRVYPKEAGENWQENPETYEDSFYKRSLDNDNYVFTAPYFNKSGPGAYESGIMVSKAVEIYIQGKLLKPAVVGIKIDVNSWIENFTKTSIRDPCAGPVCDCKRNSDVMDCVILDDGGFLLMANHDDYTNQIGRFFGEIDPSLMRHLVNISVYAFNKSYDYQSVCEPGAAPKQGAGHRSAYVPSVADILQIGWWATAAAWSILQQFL
# T1 sequence (P54289 947-1103 partner limits assumed): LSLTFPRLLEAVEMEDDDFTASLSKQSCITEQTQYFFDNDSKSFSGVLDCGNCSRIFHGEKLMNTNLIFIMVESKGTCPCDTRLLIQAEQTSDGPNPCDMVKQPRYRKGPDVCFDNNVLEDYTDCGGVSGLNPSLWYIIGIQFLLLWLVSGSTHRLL
compound,measurement,setting,value
"CC(C)CCN(C)[C@@H](CC(C)C)C(=O)N[C@@H](Cc1ccc(OCc2ccccc2)cc1)C(=O)N1CCN(C)CC1 (relative stereo) [Example 12, [S-(R*,R*)]-4-Methyl-2-[methyl-(3-methyl-butyl)-amino]-pentanoic acid [1-(4-benzyloxy-benzyl)-2-(4-methyl-piperazin-1-yl)-2-oxo-ethyl]-amide]",IMR 32 % of Blockade @ 1 μM,[1],39%
same,IMR 32 % of Blockade @ 10 μM,[1],88%
"CC(C)C[C@@H](C(=O)N[C@@H](Cc1ccc(OCc2ccccc2)cc1)C(=O)NC(C)(C)C)N(C)C1CCOCC1 (relative stereo) [Example 87, [S-(R*,R*)]-4-Methyl-2-[methyl-(tetrahydro-pyran-4-yl)-amino]-pentanoic acid [2-(4-benzyloxy-phenyl)-1-tert-butylcarbamoyl-ethyl]-amide]",IC50,[2],3100 nM
"CC(C)C[C@H](NCc1ccc(C(C)(C)C)cc1)C(=O)N[C@@H](Cc1ccc(OCc2ccccc2)cc1)C(=O)OC(C)(C)C (relative stereo) [Example 32, [S-(R*,R*)]-3-(4-Benzyloxy-phenyl)-2-[2-(4-tert-butyl-benzylamino)-4-methyl-pentanoylamino]-propionic acid tert-butyl ester]",IC50,[2],250 nM
"CC(C)CCN(C)[C@@H](CC(C)C)C(=O)N[C@@H](Cc1ccc(OCc2ccccc2)cc1)C(=O)NCCCn1ccnc1 (relative stereo) [Example 59, [S-(R*,R*)]-4-Methyl-2-[methyl-(3-methyl-butyl)-amino]-pentanoic acid [2-(4-benzyloxy-phenyl)-1-(3-imidazol-1-yl-propylcarbamoyl)-ethyl]-amide]",IC50,[2],1600 nM
"CC(C)C[C@@H](C(=O)N[C@@H](Cc1ccc(OCc2ccccc2)cc1)C(=O)NC(C)(C)C)N(C)C1CCC(C(C)(C)C)CC1 (relative stereo) [Example 38, [S-(R*,R*)]-2-[(4-tert-Butyl-cyclohexyl)-methyl-amino]-4-methyl-pentanoic acid [2-(4-benzyloxy-phenyl)-1-tert-butylcarbamoyl-ethyl]-amide]",IMR 32 % of Blockade @ 1 μM,[1],23%
"[S-(R*,R*)]-4-Methyl-2-(tetrahydropyran-4-yl-amino)-pentanoic acid [2-(4-benzyloxy-phenyl)-1-(-(2-pyridin-2-yl-ethylcarbamoyl)-ethyl]-amide [Example 128]",IC50,[3],3900 nM
"CCC[C@@H](C(=O)N[C@@H](Cc1ccc(OCc2ccccc2)cc1)C(=O)NC(C)(C)C)N(C)CCC(C)C (relative stereo) [Example 46, [S-(R*,R*)]-4-Methyl-2-[methyl-(3-methyl-butyl)-amino]-butyric acid [2-(4-benzyloxy-phenyl)-1-tert-butylcarbamoyl-ethyl]-amide]",IMR 32 % of Blockade @ 0.3 μM,"0.3 μM, IMR-32 cells, 5 μM nitrendipine",36%
same,IMR 32 % of Blockade @ 3 μM,"3 μM, IMR-32 cells, 5 μM nitrendipine",74%
"CC(C)CC(C(=O)NC(Cc1ccc(OCc2ccccc2)cc1)C(=O)NC(C)(C)C)N(C)Cc1ccccc1 (stereo not drawn) [Example 54, [S-(R*,R*)]-2-(Benzyl-methyl-amino)-4-methyl-pentanoic acid [2-(4-benzyloxy-phenyl)-1-tert-butylcarbamoyl-ethyl]-amide]",IC50,[2],360 nM
"CC(C)CCN(C)[C@@H](CC(C)C)C(=O)N[C@@H](Cc1ccc(OCc2ccccc2)cc1)C(=O)NCCN1CCOCC1 (relative stereo) [Example 57, [S-(R*,R*)]-4-Methyl-2-[methyl-(3-methyl-butyl)-amino]-pentanoic acid [2-(4-benzyloxy-phenyl)-1-(2-morpholin-4-yl-ethylcarbamoyl)-ethyl]-amide]",IC50,[2],2100 nM
"CC(C)C[C@@H](C(=O)N[C@@H](Cc1ccc(OCc2ccccc2)cc1)C(=O)NC(C)(C)C)N(C)Cc1ccncc1 (relative stereo) [Example 83, [S-(R*,R*)]-4-Methyl-2-(methyl-pyridin4-ylmethyl-amino)-pentanoic acid [2-(4-benzyloxy-phenyl)-1-tert-butylcarbamoyl-ethyl]-amide]",IC50,[2],1300 nM
"CC(C)C[C@@H](C(=O)N[C@@H](Cc1ccc(OCc2ccccc2)cc1)C(=O)NC1CCN(Cc2ccccc2)CC1)N(C)CC1CCCCC1 (relative stereo) [Example 29, [S-(R*,R*)]-2-(Cyclohexylmethyl-methyl-amino)-4-methyl-pentanoic acid [2-(4-benzyloxy-phenyl)-1-(1-benzyl-piperidin-4-ylcarbamoyl)-ethyl]-amide]",IC50,[2],600 nM
"CC(C)CC(C(=O)NC(Cc1ccc(OCc2ccccc2)cc1)C(=O)NCCCn1ccnc1)N1CCOCC1 (stereo not drawn) [Example 121, [S-(R*,R*)]-4-Methyl-2-morpholin-4-yl-pentanoic acid [2-(4-benzyloxy-phenyl)-1-(3-imidazol-1-yl-propylcarbamoyl)-ethyl]-amide]",IC50,[3],14000 nM
"CC(C)C[C@@H](C(=O)N[C@@H](Cc1ccc(OCc2ccccc2)cc1)C(=O)NC(C)(C)C)N(C)Cc1cccnc1 (relative stereo) [Example 101, [S-(R*,R*)]-4-Methyl-2-(methyl-pyridin-3-ylmethyl-amino)-pentanoic acid [2-(4-benzyloxy-phenyl)-1-tert-butylcarbamoyl-ethyl]-amide]",IMR 32 % of Blockade @ 1 μM,[1],26%
"CC(C)CCN(C)[C@@H](CC(C)C)C(=O)N[C@@H](Cc1ccc(OCc2ccccc2)cc1)C(=O)N1CCCCC1 (relative stereo) [Example 8, [S-(R*,R*)]-4-Methyl-2-[methyl-(3-methyl-butyl)-amino]-pentanoic acid [1-(4-benzyloxy-benzyl)-2-oxo-2-piperidin-1-yl-ethyl]-amide]",IMR 32 % of Blockade @ 1 μM,[1],70%
same,IMR 32 % of Blockade @ 10 μM,[1],87%
"CCN(CC)C(CC(C)C)C(=O)N[C@@H](Cc1ccc(OCc2ccccc2)cc1)C(=O)NC(C)(C)C (stereo in doubt) [Example 37, [S-(R*,R*/S*)]-2-Diethylamino-4-methyl-pentanoic acid[2-(4-benzyloxy-phenyl)-1-tert-butylcarbamoyl-ethyl]-amide]",IC50,read-out: IMR 32 IC50,1000 nM
"CC(C)C[C@@H](C(=O)N[C@@H](Cc1ccc(OCc2ccccc2)cc1)C(=O)NC(C)(C)C)N(C)C(C)C (relative stereo) [Example 86, [S-(R*,R*)]-2-(Isopropyl-methyl-amino)-4-methyl-pentanoic acid [2-(4-benzyloxy-phenyl)-1-tert-butylcarbamoyl-ethyl]-amide]",IC50,[2],2800 nM
"CC(C)CCN(C)C(CC(C)C)C(=O)NC(Cc1ccc(OCc2ccccc2)cc1)C(=O)N1CCN(Cc2ccccc2)CC1 (stereo not drawn) [Example 10, [S-(R*,R*)]4-Methyl-2-[methyl-(3-methyl-butyl)-amino]-pentanoic acid [1-(4-benzyloxy-benzyl)-2-(4-benzyl-piperazin-1-yl)-2-oxo-ethyl]-amide]",IMR 32 % of Blockade @ 1 μM,[1],61%
same,IMR 32 % of Blockade @ 10 μM,[1],80%
"CC(C)CCN(C)[C@@H](CC(C)C)C(=O)N[C@@H](Cc1ccc(OCc2ccccc2)cc1)C(=O)NCCc1ccccn1 (relative stereo) [Example 58, [S-(R*,R*)]-4-Methyl-2-[methyl-(3-methyl-butyl)-amino]-pentanoic acid [2-(4-benzyloxy-phenyl)-1-(2-pyridin-2-yl-ethylcarbamoyl)-ethyl]-amide]",IC50,[2],1000 nM
"CC(C)C[C@@H](C(=O)N[C@@H](Cc1ccc(OCc2ccccc2)cc1)C(=O)NCCN1CCSCC1)N1CCOCC1 (relative stereo) [Example 122, [S-(R*,R*)]-4-Methyl-2-morpholin-4-yl-pentanoic acid [2-(4-benzyloxy-phenyl)-1-(2-thiomorpholin-4-yl-ethylcarbamoyl)-ethyl]-amide]",IC50,[3],3100 nM
